Test results from patent US20240329063A1, “METHOD FOR EVALUATING RESIDUAL PLATELET THROMBOTIC POTENTIAL IN PATIENTS UNDERGOING ANTIPLATELET TREATMENT” (Centro Cardiologico Monzino S.P.A., priority 2021, published 2024).

How the values were obtained:
P-selectin [1] = assay: ADP-induced P-selectin expression on platelets, flow cytometry, in vitro antagonist inhibition curves; type: cell-based, human
Method: (§1) The data obtained in patients without clopidogrel (No clopido) (n=39) are shown for comparison purposes. Panels C, D and E show the ADP concentration-response curves (black squares) and AR-C69931MX antagonist inhibition curves (white triangles) relating to TF, aGPIIbIIIa and P-selectin respectively. The EC50 of the agonist was calculated with a four-parameter logistic model, while the pA2s of the antagonist were calculated as described in Materials and Methods. The results are presented as percentage expression of the protein compared with baseline (s/b). The experiments were conducted at least three times. **p<0.01, ***p<0.001.
(§2) For the analysis of intracellular expression of TF, the cells were fixed for 2 hours with 1% paraformaldehyde, permeabilised for 10 min with an 0.1% solution of Triton X-100 PBS, and labelled for 15 min at room temperature in the dark with saturating concentrations of anti-TF and CD61 antibodies (PerCP; Becton Dickinson). […] All the data were analysed with Kaluza analysis software v1.5 (Beckman Coulter) and reported as percentage of positive cells or MFI (mean fluorescence intensity) of platelets positive to the activation marker.
(§3) A p-value of 0.05 was considered statistically significant. […] All curves shown are generated by informatics methods.

aGPIIbIIIa [2] = assay: ADP-induced aGPIIbIIIa expression (PAC1 binding) on platelets, flow cytometry, in vitro antagonist inhibition curves; type: cell-based, human; conditions: ADP-stimulated platelets, spread as % CV, FIG. 1D-F
Method: as §1, §2, §3

TF [3] = assay: ADP-induced TF expression on platelets, flow cytometry, in vitro antagonist inhibition curves; type: cell-based, human; conditions: ADP-stimulated platelets, spread as % CV, FIG. 1D-F
Method: as §1, §2, §3

TF [4] = conditions: clopidogrel 75 mg/day, FIG. 1A
Method: (§4) The in vitro experiments were conducted on 10 healthy volunteers (n=5 males and n=5 females; average age 39±6) who had not taken antiplatelet medicaments in the 10 days before the blood sample was taken. The effect of clopidogrel on TF expression was evaluated on 193 patients suffering from coronary artery disease (CAD) with myocardial infarction with non-ST elevation. […] The clinical characteristics of the patients enrolled are set out in Table 1.
(§5) The exclusion criteria were: age >80 years, valvular heart disease, atrial fibrillation, thyrotoxicosis, history of haemorrhagic diathesis, platelet disorder or thrombocytopenia, anticoagulant or thrombolytic treatment. A subject with severe congenital P2Y12 deficiency (person) was also studied.
(§6) Whole blood (WB) samples were taken with a 19 gauge needle without venous stasis in tubes containing sodium citrate (0.129 M, 1/10 volume/volume) (Vacutainer, Becton Dickinson), discarding the first 4 ml. The blood samples were then processed within 15 minutes of sample-drawing. The WB was centrifuged (room temperature, without centrifuge brake) at 100 g for 10 minutes to isolate the platelets. The platelet-rich plasma (PRP) was transferred to a new test tube and analysed with the Sysmex XE-2100 Automated Hematology Analyzer to determine the platelet count, mean platelet volume (MPV), platelet distribution […] (PDW), platelet recovery (defined as the percentage of the platelet count in the PRP to 100% of the number of platelets in the WB), and leukocyte contamination. Only the platelet preparations free of leukocyte contamination and with platelet recovery >70% were used for the subsequent thrombin generation analysis.
(§7) Surface expression of platelet activation markers was analysed by flow cytometry as previously described (Brambilla M, et al., Arterioscler Thromb Vasc Biol. 2008;28 (5): 947-953). Briefly, the samples were incubated/labelled with saturating concentrations of mouse monoclonal antibodies recognizing human tissue factor (HTF1; Thermo Fisher), P-selectin (APC; Becton Dickinson), PAC1 (FITC; Becton Dickinson), CD36 (PE; Becton Dickinson) and CD154 (FITC; Becton Dickinson). For the analysis of intracellular expression of TF, the cells were fixed for 2 hours with 1% paraformaldehyde, permeabilised for 10 min with an 0.1% solution of Triton X-100 PBS, and labelled for 15 min at room temperature in the dark with saturating concentrations of anti-TF and CD61 antibodies (PerCP; Becton Dickinson).

P-selectin [5] = conditions: clopidogrel 75 mg/day; 10 μM ADP; all CAD patients, to the same extent regardless of the degree of VASP phosphorylation; FIG. 1C
Method: as §4, §5, §6, §7

aGPIIbIIIa [6] = conditions: clopidogrel 75 mg/day; 10 μM ADP; FIG. 1B
Method: as §4, §5, §6, §7

SMILES | pA2 for inhibition of P-selectin expression (P-selectin [1]; ADP-stimulated platelets, spread as % CV, FIG. 1D-F) | power (pA2) to inhibit P-selectin expression relative to that required to inhibit TF (P-selectin [1]; P-selectin versus TF) | power (pA2) to inhibit P-selectin expression relative to that required to inhibit aGPIIbIIIa (P-selectin [1]; P-selectin versus aGPIIbIIIa) | pA2 for inhibition of aGPIIbIIIa expression (aGPIIbIIIa [2]) | pA2 for inhibition of TF expression (TF [3]) | inhibition of TF exposed to stimulation with 10 μM ADP, poor responders versus good responders (TF [4]; patients with PRI >60% compared with PRI <60%) | inhibition of TF exposed to stimulation with 10 μM ADP, poor responders versus untreated subjects (TF [4]; patients with PRI >60% compared with subjects not treated with clopidogrel) | P-selectin expression (P-selectin [5]) | expression of activated glycoprotein IIbIIIa measured by the PAC1 bond (aGPIIbIIIa [6])
CSCCNc1nc(SCCC(F)(F)F)nc2c1ncn2[C@@H]1O[C@H](COP(=O)(O)OP(=O)(O)C(Cl)(Cl)P(=O)(O)O)[C@@H](O)[C@H]1O [AR-C69931MX] | 11.5±3.1 | 150 times | 6 times | 10.7±0.29 | 9.33±2.1 | – | – | – | –
COC(=O)[C@H](c1ccccc1Cl)N1CCc2sccc2C1 [clopidogrel] | – | – | – | – | – | significantly less than that measured in the good responders | not statistically different from that measured in the subjects not treated with clopidogrel | significantly inhibited | highest in the poor responders
